{"source": "patent US11273217B2", "about": "“Cancer treatment composition combining anti-CD26 antibody and other anticancer agent” (Y's AC Co., Ltd., priority 2015, dated 2022)", "key": {"MESO1 cells [1]": {"test_system": "MESO1 cells", "assay": "MTT cell growth assay, MESO1", "assay_type": "cell-based", "conditions": "day 2", "protocol": "(§1) MESO1 or H2452 cells (2×10^3 cells/well) were inoculated to a 96-well plate. One hour later, cisplatin or pemetrexed was added thereto at 10^−9, 10^−8, 10^−7, 10^−6, 10^−5, or 10^−4 M (n=6). At day 2, MTT assay was conducted.\nMESO1 cells (2×10^3 cells/well) were inoculated to a 96-well plate. One hour later, the combination of 0.3, 3, or 10 μM cisplatin and 0.1, 3, or 10 μg/ml YS110, or the combination of 0.03, 0.3, or 1 μM pemetrexed and 0.1, 3, or 10 μg/ml YS110 was added thereto. At day 2, MTT assay was conducted. Significant difference was tested by two-tailed t-test (vs Cont).\n(§2) MESO1 cells (2×10^3 cells/well) or H2452 cells (2×10^3 cells/well) were inoculated to a 96-well plate. One hour later, 0.3 μM cisplatin-0.1 μM pemetrexed combination, or YS110 (10 μg/ml) plus the 0.3 μM cisplatin-0.1 μM pemetrexed combination was added thereto (n=6). At day 2, MTT assay was conducted. Significant difference was tested by two-tailed t-test (vs Cont).\n(§3) Gemcitabine was studied for its effect on the growth of a mesothelioma cell line. A mesothelioma cell line MESO1, JMN, H2452, or H226 (2×10^3 cells/well) was inoculated to a 96-well plate. One hour later, gemcitabine (10^−9, 10^−8, 10^−7, 10^−6, 10^−5, or 10^−4 M) was added thereto (N=6). 2 days later, MTT assay was conducted. Significant difference was tested by two-tailed t-test (vs Cont).\n(§4) MESO1 cells (2×10^3 cells/well) were inoculated to a 96-well plate. One hour later, gemcitabine (0, 10^−8, 3×10^−8, or 10^−7 M) and YS110 (0, 1, 3, or 10 μg/ml) were added thereto in combination. At day 2, MTT assay was conducted. Significant difference was tested by two-tailed t-test (vs Cont). Next, interaction in concomitant use of medications was studied (n=6). The interaction between YS110 and gemcitabine used concomitantly was analyzed by two-way ANOVA.\n(§5) MESO1, JMN, H2452 or H226 cells (2×10^3 cells/well were inoculated to a 96-well plate. One hour later, 3×10^−8 M or 10^−7 M gemcitabine was added thereto by concomitant use with the combination of cisplatin (0, 0.1, 0.3, or 1 μM) and pemetrexed (0, 0.03, 0.1, or 0.3 μM) (n=6). At day 2, MTT assay was conducted.\nThe growth inhibitory effects of cisplatin (10^−9 to 10^−4 M) and pemetrexed (10^−9 to 10^−4 M) were compared using the MESO1 and JMN cell lines.\n(§6) The growth inhibitory effect of gemcitabine (10^−9 to 10^−4 M) was compared using MESO1, H2452, JMN, and H226 cell lines."}, "H2452 cells": {"test_system": "H2452 cells", "assay": "MTT cell growth assay, H2452", "assay_type": "cell-based", "conditions": "day 2", "protocol": "as §1\nH2452 cells (2×10^3 cells/well) were inoculated to a 96-well plate. One hour later, the combination of 0.03, 0.3, or 1 μM cisplatin and 0.1, 3, or 10 μg/ml YS110, or the combination of 0.01, 0.1, or 0.3 μM pemetrexed and 0.1, 3, or 10 μg/ml YS110 was added thereto (n=6). At day 2, MTT assay was conducted. Significant difference was tested by two-tailed t-test (vs Cont).\nas §2, §3\nas §4, with “H2452” for “MESO1”\nas §5, §6"}, "H226 cells": {"test_system": "H226 cells", "assay": "MTT cell growth assay, H226", "assay_type": "cell-based", "conditions": "gemcitabine 10^−8, 3×10^−8, or 10^−7 M and YS110 1, 3, or 10 μg/ml; day 2", "protocol": "as §3\nas §4, with “H226” for “MESO1”\nas §5, §6"}, "MESO1 cells [2]": {"test_system": "MESO1 cells", "assay": "In vivo MESO1 cell growth in SCID mice (tumor weight)", "conditions": "YS110 10 mg/kg, cisplatin 0.5 mg/kg, pemetrexed 50 mg/kg, intraperitoneal, days 1 and 4; tumor weight day 7", "protocol": "MESO1 cells (3×10^5 cells/animal) were subcutaneously transplanted to the backs of female SCID mice. The day of transplantation was defined as day 0. YS110 (10 mg/kg) alone, cisplatin (0.5 mg/kg)-pemetrexed (50 mg/kg) used concomitantly, or YS110 (10 mg/kg) concomitantly used with the cisplatin-pemetrexed concomitant use was intraperitoneally administered to the mice twice (days 1 and 4). At day 7, their tumors were excised, and the tumor weights were measured. Significant difference was tested by two-tailed t-test (vs Cont)."}, "H226": {"test_system": "H226", "assay": "In vivo growth of epithelioid mesothelioma cell H226 in SCID mice (tumor weight)", "conditions": "YS110 10 mg/kg, gemcitabine 20 mg/kg, intraperitoneal, days 2 and 4; day 7", "protocol": "H226 (3.8×10^5 cells/animal) was subcutaneously transplanted to the backs of female SCID mice. The day of transplantation was defined as day 0. YS110 (10 mg/kg), gemcitabine (20 mg/kg), or YS110 (10 mg/kg)+gemcitabine (20 mg/kg) was intraperitoneally administered to the mice twice (days 2 and 4) (n=6). At day 7, their tumors were excised, and the tumor weights were measured. Significant difference was tested by two-tailed t-test (vs Cont). The interaction between YS110 and gemcitabine used concomitantly was analyzed by two-way ANOVA."}, "HCC4006 cells": {"test_system": "HCC4006 cells", "assay": "In vivo growth of CD26-positive lung cancer cell line HCC4006 in SCID mice (tumor weight)", "conditions": "YS110 10 mg/kg intraperitoneal, gefitinib 100 mg/kg oral, days 1 and 4; day 7"}, "[3]": {"conditions": "YS110 10 μg/ml plus 0.3 μM cisplatin-0.1 μM pemetrexed"}, "[4]": {"conditions": "gemcitabine 10^−8, 3×10^−8, or 10^−7 M and YS110 1, 3, or 10 μg/ml"}}, "data": [{"substance": "YS110: humanized anti-CD26 antibody designed based on anti-CD26 mouse antibody 14D10; SEQ ID NO: 17 and 18", "values": [{"measurement": "effect of YS110 on the cell growth inhibitory effect of pemetrexed", "setting": "MESO1 cells [1]; 0.03, 0.3, or 1 μM pemetrexed and 0.1, 3, or 10 μg/ml YS110", "result": "potentiated"}, {"measurement": "effect of YS110 on the cell growth inhibitory effect of cisplatin", "setting": "MESO1 cells [1]; 0.3, 3, or 10 μM cisplatin and 0.1, 3, or 10 μg/ml YS110", "result": "potentiated"}, {"measurement": "effect of YS110 on the cell growth inhibitory effect of cisplatin-pemetrexed", "setting": "MESO1 cells [1]; [3]", "result": "potentiated"}, {"measurement": "effect of YS110 on the growth inhibitory effect of gemcitabine", "setting": "MESO1 cells [1]; [4]", "result": "potentiated"}, {"measurement": "effect of YS110 on the cell growth inhibitory effect of pemetrexed", "setting": "H2452 cells; 0.01, 0.1, or 0.3 μM pemetrexed and 0.1, 3, or 10 μg/ml YS110", "result": "potentiated"}, {"measurement": "effect of YS110 on the cell growth inhibitory effect of cisplatin", "setting": "H2452 cells; 0.03, 0.3, or 1 μM cisplatin and 0.1, 3, or 10 μg/ml YS110", "result": "potentiated"}, {"measurement": "effect of YS110 on the cell growth inhibitory effect of cisplatin-pemetrexed", "setting": "H2452 cells; [3]", "result": "potentiated"}, {"measurement": "effect of YS110 on the growth inhibitory effect of gemcitabine", "setting": "H2452 cells; [4]", "result": "potentiated"}, {"measurement": "effect of YS110 on the growth inhibitory effect of gemcitabine", "setting": "H226 cells", "result": "potentiated"}, {"measurement": "effect of YS110 on the in vivo tumor growth inhibitory effect of cisplatin-pemetrexed", "setting": "MESO1 cells [2]", "result": "potentiated"}, {"measurement": "inhibitory effect (tumor weight)", "setting": "H226", "result": 34, "unit": "%"}, {"measurement": "effect of YS110 on the effect of gefitinib (tumor weight)", "setting": "HCC4006 cells", "result": "potentiated"}]}]}
